Experimental data as given in patent publication US20020197244A1, “Compositions and methods for regulating phagocytosis and ICAM-1 expression” (priority 1998, published 2002).
“Also recorded” adds a separate entry of the source.

Key:
MelanoDerm equivalents = assay: Pigmentation in melanocyte-containing epidermal equivalents; type: cell-based; conditions: keratinocyte-melanocyte contact
Description: (§1) Since PAR-2 is expressed in keratinocytes, but not in melanocytes, the possible requirement of keratinocyte-melanocyte contact was tested for the effect of Compound I and SLIGRL on melanosome phagocytosis by the keratinocytes. Primary melanocyte cultures (commercially available from Clonetics, San Diego) were plated under epidermal equivalents (EpiDerm, of MatTek, Ashland, Mass.) to create an equivalent-monolayer co-culture with no contact between keratinocytes and melanocytes. These co-cultures were compared to MelanoDerm equivalents (of MatTek), where melanocytes are present in the basal layer of the equivalent. Cultures were treated with Compound I, with the […], and with the PAR-2 agonist SLIGRL. As set forth in Table 3, keratinocytes are indicated by “K”, melanocytes are indicated by “M”, and lack of keratinocyte-melanocyte contact is indicated as “no K-M cont”. […] The same result was also observed with monolayer keratinocyte/melanocyte co-cultures having keratinocyte/melanocyte contact.

[1] = system: melanocyte cultures plated under epidermal equivalents (EpiDerm); assay: Pigmentation in equivalent-monolayer co-culture (no K-M contact); type: cell-based; conditions: no keratinocyte-melanocyte contact
Description: as §1

Human keratinocytes = assay: Timing of effect on keratinocyte microsphere phagocytosis; type: cell-based; set-up: key: +: Plus signs indicate an effect on phagocytosis; −: minus signs indicate no effect on phagocytosis; −/+: plus/minus signs indicate a marginal effect on phagocytosis; conditions: effect = decrease for Compound I, increase for SLIGRL
Description: In this example, human primary keratinocytes or the human keratinocyte cell line HaCaT were used as in vitro model systems to study the effect of PAR-2 regulators on keratinocyte phagocytosis. The human primary keratinocytes used are commercially available from Clonetics (San Diego, Calif.). Cells were plated on chamber slides, at 2 chambers/slide and 60,000 cells/chamber. Cells were treated once daily, for two or three days, with Compound I (1μM), SLIGRL (10μM), or vehicle (Phosphate-buffered saline, (“PBS”) from Gibco-BRL (Gaithersburg, Md.). After two or three days of exposure to the test compounds, cells were exposed to Nile-red or FITC fluorescent microspheres, 1 μm in diameter, 50 microspheres/cell, for two hours at 37° C. Microspheres were from Molecular Probes (Eugene, Oreg.), and were processed according to manufacturer's instructions. Following that treatment, cells were incubated with 15% Fetal Bovine Serum (“FBS”, from Gibco-BRL), for 15 minutes at 37° C. and rinsed with PBS. At that time, chambers were separated from the slides, and the slides were covered with glycerol and coverslips. Fluorescent microscopy was performed using a Zeiss Axiovert 35 or a Nikon Optiphot-2 microscope.
Human keratinocytes were treated with Compound I or SLIGRL for periods of time ranging from one hour to two days. At the end of the treatment period, the cells were treated with microspheres as described in Example 1. […] Plus signs indicate an effect on phagocytosis, minus signs indicate no effect on phagocytosis, and plus/minus signs indicate a marginal effect on phagocytosis. The effects measured were a decrease for Compound I and an increase for SLIGRL. […] This implies that the PAR-2 signaling results in new protein synthesis, a reduction in protein synthesis when a turnover time is required to eliminate the existing relevant protein(s), or a rearrangement of proteins (as occurs in the reorganization of cytoskeletal components).

[2] = system: human primary keratinocytes; assay: Fluorescent microsphere ingestion by human primary keratinocytes; type: cell-based; conditions: treated two days; Compound I 1μM, SLIGRL 10μM; vs vehicle control; FIG. 1
Description: In order to study the role of the PAR-2 pathway in phagocytosis, several in vitro model systems were used. One system used contained primary human keratinocytes or a human keratinocyte cell line. In this and a number of following examples, cells were treated with test compounds for different amounts of time (from one hour to three days), and samples were then incubated with fluorescent microspheres for two hours. The beads ingested by the cells were photographed using fluorescence microscopy.
In this example, human primary keratinocytes or the human keratinocyte cell line HaCaT were used as in vitro model systems to study the effect of PAR-2 regulators on keratinocyte phagocytosis. The human primary keratinocytes used are commercially available from Clonetics (San Diego, Calif.). Cells were plated on chamber slides, at 2 chambers/slide and 60,000 cells/chamber. […]
Microspheres were also found around the cell, probably because they are non-specifically attached to extracellular-matrix components secreted by the cell. The quantity of the microspheres ingested was changed with the treatments.

ICAM-1 = ICAM-1 immuno-precipitation and Western blotting in keratinocytes; type: cell-based; conditions: treated keratinocytes; FIG. 6B
Description: Immuno-precipitation and Western blotting experiments were performed, according to known methods, to assess the level of ICAM-1 protein in treated keratinocytes.

[3] = system: monolayer keratinocyte/melanocyte co-cultures; assay: Pigmentation in monolayer keratinocyte/melanocyte co-cultures (K-M contact); type: cell-based; conditions: keratinocyte-melanocyte contact
Description: as §1

Keratinocytes = assay: Scanning electron microscopy of keratinocyte podia; type: cell-based; conditions: treated two days; vs vehicle-treated controls; FIG. 8
Description: PAR-2 Effect on Phagocytosis and Migration Relates to Changes in Cell Shape Both phagocytosis and cell migration involve changes in cell shape. Therefore, the effect of the PAR-2 pathway reagents on cell podia were studied using scanning electron microscopy. Keratinocytes were treated with Compound I (identified as “SH00230”), SLIGRL and a buffer vehicle for two days, and then processed for SEM using standard techniques. […] In other words, the cells' “fingers” are shorter and malformed, so they cannot grasp objects as well as can the control cells. […] In other words, these cells have a greater probability for productive interaction with particles. Comparing these SEM pictures in FIG. 8, it is clear that SLIGRL-treated cells have a greater ability to interact with particles, while Compound I-treated cells are less suited for such a task.

[4] = system: human skin, grafted on immuno-suppressed mice; assay: Pigmentation of human skin grafted on immuno-suppressed mice; type: in vivo
Description: Human white facial skin samples were grafted on immuno-suppressed mice using standard techniques. About six weeks later grafts of the same individual, grafted on different mice, were treated with vehicle (ethanol: propylene glycol 70:30), or with 50 μM SLIGRL. Treatment was performed daily, 5 days/week. Darkening of the SLIGRL-treated grafts was visually observed during the last weeks of treatment (see FIG. 7A). On day 66, the animals were sacrificed and their skins were analyzed histologically.
The same experiment was repeated with black human breast skin samples grafted on immuno-suppressed mice. Grafts of the same individual were treated with vehicle (GDL liposomes) or with 1% STI. GDL liposomes were prepared as set forth in Niemiec, et al., with the exception of the following changes: the non-ionic liposomal formulation contained glycerol dilaurate (Emulsynt GDL, ISP Van Dyk)/cholesterol (Croda)/polyoxyethylene-10-stearyl ether (Brij76, ICI)/polyoxyethylene-9-lauryl ether, at ratio of 37.5:12.5:33.3:16.7. Hepes buffer, 0.05M, pH 7.4 (Gibco-BRL of Gaithersburg, Md.) was used as the aqueous phase in the preparation of the liposomes.

Row | Molecule | level of pigmentation, Epidermal Equivalents (K-M cont.) (MelanoDerm equivalents) | level of pigmentation, Equivalent Monolayer Co-culture (no K-M cont.) [1] | effect on phagocytosis (Human keratinocytes; 1 hour of treatment) | effect on phagocytosis (Human keratinocytes; 2 hours of treatment) | effect on phagocytosis (Human keratinocytes; 4 hours of treatment) | effect on phagocytosis (Human keratinocytes; 6 hours of treatment) | effect on phagocytosis (Human keratinocytes; 8 hours of treatment) | effect on phagocytosis (Human keratinocytes; 16 hours of treatment) | effect on phagocytosis (Human keratinocytes; 24 hours of treatment) | effect on phagocytosis (Human keratinocytes; 48 hours of treatment) | quantity of ingested microspheres [2] | level of ICAM-1 protein expression (ICAM-1) | level of pigmentation, Mono-Layer Co-Cultures (K-M cont.) [3] | shape of cell podia (Keratinocytes) | visual appearance of grafts ([4]; white facial skin grafts, 50 μM SLIGRL topical daily, 5 days/week, last weeks of treatment, FIG. 7A) | melanin in F&M-stained sections ([4]; white facial skin grafts, 50 μM SLIGRL, day 66, FIG. 7B) | pigmentation in F&M-stained skin sections ([4]; black breast skin grafts, 1% STI in GDL liposomes, FIG. 7C)
1 | CN[C@H](Cc1ccccc1)C(=O)N1CCCC1C(=O)N[C@@H](CCCNC(=N)N)C(=O)c1nc2ccccc2s1 (stereo partly drawn) [Compound I, (S)-N-Methyl-D-phenylalanyl-N-[4-[(aminoiminomethyl)amino]-1-(2-benzothiazolylcarbonyl)butyl]-L-prolinamide] | reduced; also recorded: lightening | no effect | − | − | − | − | −/+ | + | + | + | dramatic reduction in the quantity of ingested microspheres | decreased the level of ICAM-1 expression | lightening | dramatically shorter podia |  |  | 
2 | SLIGRL [reference compound] | induced pigmentation; also recorded: darkening | no effect | − | − | − | − | −/+ | + | + | + | dramatic increase in the number of ingested microspheres | increased the level of ICAM-1 expression | darkening | podia were increased in number, were somewhat longer, and were much thinner | Darkening | increase in melanin | 
3 | STI: Soybean trypsin inhibitor, a serine protease inhibitor capable of affecting the PAR-2 pathway (protein, UniProt P01070 25-205, looked up) Trypsin inhibitor A: DFVLDNEGNPLENGGTYYILSDITAFGGIRAAPTGNERCPLTVVQSRNELDKGIGTIISSPYRIRFIAEGHPLSLKFDSFAVIMLCVGIPTEWSVVEDLPEGPAVKIGENKDAMDGWFRLERVSDDEFNNYKLVFCPQQAEDDKCGDIGISIDHDDGTRRLVVSKNKPLVVQFQKLDKESL |  |  |  |  |  |  |  |  |  |  |  |  |  |  |  |  | reduce pigmentation in human skin
